The target in this assay is T1, IGF-1R Ba/F3 (Homo sapiens, UniProt P08069).
T1 construct: fused on or other part: TEL- (or BCR-) IGF-1R in Ba/F3: the kinase part holds the site
Put plainly: Ba/F3 Cell Viability Inhibition Assay (IGF-1R Ba/F3). It counts as cell-based, murine. Particulars: Tel-TK transformed Ba/F3 cells, 48 hours, Britelite luminescence. Summed up: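 IL-3-independent murine Ba/F3 cells transformed with a TEL/BCR-fused IGF-1R kinase were seeded at 3750 cells/well and exposed to serially diluted compound for 48 h at 37 °C. Viability was read by Britelite luminescence. IC50 is the concentration giving 50% of DMSO-control viability, from a logistic fit.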

Structures are written as SMILES.

Broadly, the IC50 is the concentration that inhibits the measured activity by half.

T1 sequence (P08069 999-1274 limits assumed): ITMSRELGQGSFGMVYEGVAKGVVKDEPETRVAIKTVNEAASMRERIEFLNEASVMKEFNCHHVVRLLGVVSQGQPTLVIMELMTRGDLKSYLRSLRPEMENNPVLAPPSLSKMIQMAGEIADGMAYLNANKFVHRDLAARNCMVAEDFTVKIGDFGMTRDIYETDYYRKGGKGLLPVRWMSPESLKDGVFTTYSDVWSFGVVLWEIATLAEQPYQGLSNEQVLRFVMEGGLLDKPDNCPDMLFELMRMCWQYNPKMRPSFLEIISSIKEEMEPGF

The molecule `Cc1cc(Nc2nc(Nc3cc(C4CCN(CC(O)C(F)(F)F)CC4)c(F)cc3C)ncc2Cl)n[nH]1` (stereo not shown) [Compound 31, 3-(4-(5-(5-chloro-4-(5-methyl-1H-pyrazol-3-ylamino)pyrimidin-2-ylamino)-2-fluoro-4-methylphenyl)piperidin-1-yl)-1,1,1-trifluoropropan-2-ol] displayed a concentration for half-maximal inhibition (IC50) of 6470 nM.

The molecule `Cc1cc(C2CCN(C3CC3)CC2)c(C)cc1Nc1ncc(Cl)c(Nc2cc(C3CC3)[nH]n2)n1` [Compound 258, 5-chloro-N4-(5-cyclopropyl-1H-pyrazol-3-yl)-N2-(4-(1-cyclopropylpiperidin-4-yl)-2,5-dimethylphenyl)pyrimidine-2,4-diamine] registered an IC50 of 26 nM.

`Cc1cc(Nc2nc(Nc3cc(C)c(C4CCN(C5CCSCC5)CC4)cc3C)ncc2Cl)n[nH]1` [Compound 174, 5-chloro-N2-(2,5-dimethyl-4-(1-(tetrahydro-2H-thiopyran-4-yl)piperidin-4-yl)phenyl)-N4-(5-methyl-1H-pyrazol-3-yl)pyrimidine-2,4-diamine] registered an IC50 of 8 nM.

Consider `Cc1cc(Nc2nc(Nc3cc(C)c(C4CCN(C5CN(S(C)(=O)=O)C5)CC4)cc3F)ncc2Cl)n[nH]1` [Compound 300, 5-chloro-N2-(2-fluoro-5-methyl-4-(1-(1-(methylsulfonyl)azetidin-3-yl)piperidin-4-yl)phenyl)-N4-(5-methyl-1H-pyrazol-3-yl)pyrimidine-2,4-diamine], for which the IC50 stood at 32 nM.

Turning to `Cc1cc(Nc2nc(Nc3cc(C)c(C4CCN(C(=O)CCN5CCCC5)CC4)cc3C)ncc2Cl)n[nH]1` [Compound 226, 1-(4-(4-(5-chloro-4-(5-methyl-1H-pyrazol-3-ylamino)pyrimidin-2-ylamino)-2,5-dimethylphenyl)piperidin-1-yl)-3-(pyrrolidin-1-yl)propan-1-one], half-maximal inhibition (IC50) required 61 nM.

As to `Cc1cc(Nc2nc(Nc3cc(C)c(C4CCN(CC(F)(F)F)CC4)cc3F)ncc2Cl)n[nH]1` [Compound 26, 5-chloro-N2-(2-fluoro-5-methyl-4-(1-(2,2,2-trifluoroethyl)piperidin-4-yl)phenyl)-N4-(5-methyl-1H-pyrazol-3-yl)pyrimidine-2,4-diamine], the IC50 was 142 nM.

For the molecule `Cc1cc(Nc2nc(Nc3cc(C)c(C4CCN(Cc5noc(C)n5)CC4)cc3C)ncc2Cl)n[nH]1` [Compound 304, 5-chloro-N2-(2,5-dimethyl-4-(1-((5-methyl-1,2,4-oxadiazol-3-yl)methyl)piperidin-4-yl)phenyl)-N4-(5-methyl-1H-pyrazol-3-yl)pyrimidine-2,4-diamine], half-maximal inhibition (IC50) was put at 5 nM.

Take `Cc1cc(Nc2nc(Nc3cc(C)c(C4CCN(Cc5cnccn5)CC4)cc3C)ncc2Cl)n[nH]1` [Compound 318, 5-chloro-N2-(2,5-dimethyl-4-(1-(pyrazin-2-ylmethyl)piperidin-4-yl)phenyl)-N4-(5-methyl-1H-pyrazol-3-yl)pyrimidine-2,4-diamine]: 10 nM corresponded to half-maximal inhibition (IC50).

Regarding `Cc1cc(Nc2nc(Nc3cc(C)c(C4CCN(CCC(N)=O)CC4)cc3C)ncc2Cl)n[nH]1` [Compound 236, 3-(4-(4-(5-Chloro-4-(5-methyl-1H-pyrazol-3-ylamino)pyrimidin-2-ylamino)-2,5-dimethylphenyl)piperidin-1-yl)propanamide], 59 nM corresponded to half-maximal inhibition (IC50).

Take `Cc1cc(Nc2nc(Nc3cc(C)c(C4CCN(C5CCS(=O)(=O)CC5)CC4)cc3C)ncc2Cl)n[nH]1` [Compound 146]: the midpoint of inhibition, the IC50, lay at 258 nM.

For `Cc1cc(Nc2nc(Nc3cc(C)c(C4CCN(C(=O)CN5CCN(C)CC5)CC4)cc3F)ncc2Cl)n[nH]1` [Compound 105, 1-(4-(4-(5-chloro-4-(5-methyl-1H-pyrazol-3-ylamino)pyrimidin-2-ylamino)-5-fluoro-2-methylphenyl)piperidin-1-yl)-2-(4-methylpiperazin-1-yl)ethanone], the IC50 amounted to 51 nM.

For `COCC(=O)N1CCC(c2cc(C)c(Nc3ncc(Cl)c(Nc4cc(C)[nH]n4)n3)cc2C)CC1` [Compound 106, 1-(4-(4-(5-chloro-4-(5-methyl-1H-pyrazol-3-ylamino)pyrimidin-2-ylamino)-2,5-dimethylphenyl)piperidin-1-yl)-2-methoxyethanone], 2 nM corresponded to half-maximal inhibition (IC50).

In the case of `Cc1cc(Nc2nc(Nc3cc(C)c(C4CCN(C(=O)NCCN(C)C)CC4)cc3F)ncc2Cl)n[nH]1` [Compound 109, 4-(4-(5-chloro-4-(5-methyl-1H-pyrazol-3-ylamino)pyrimidin-2-ylamino)-5-fluoro-2-methylphenyl)-N-(2-(dimethylamino)ethyl)piperidine-1-carboxamide], the IC50 came to 60 nM.

On to `CCc1noc(CN2CCC(c3cc(F)c(Nc4ncc(Cl)c(Nc5cc(C)[nH]n5)n4)cc3C)CC2)n1` [Compound 284, 5-chloro-N2-(4-(1-((3-ethyl-1,2,4-oxadiazol-5-yl)methyl)piperidin-4-yl)-2-fluoro-5-methylphenyl)-N4-(5-methyl-1H-pyrazol-3-yl)pyrimidine-2,4-diamine], for which half-maximal inhibition (IC50) was put at 33 nM.

Molecule `COc1cc(Nc2ncc(Cl)c(Nc3cc(C)[nH]n3)n2)c(C)cc1C1CCN(C(=O)CN(C)C)CC1` [Compound 76, 1-(4-(4-(5-chloro-4-(5-methyl-1H-pyrazol-3-ylamino)pyrimidin-2-ylamino)-2-methoxy-5-methylphenyl)piperidin-1-yl)-2-(dimethylamino)ethanone] returned an IC50 of 9 nM.

`Cc1cc(Nc2nc(Nc3cc(C)c(C4CCN(C(=O)C5CCN(C)CC5)CC4)cc3F)ncc2Cl)n[nH]1` [Compound 118, (4-(4-(5-chloro-4-(5-methyl-1H-pyrazol-3-ylamino)pyrimidin-2-ylamino)-5-fluoro-2-methylphenyl)piperidin-1-yl)(1-methylpiperidin-4-yl)methanone]: the IC50 was 81 nM. This IC50 is about 9-fold higher than that of the molecule before.

For the molecule `Cc1cc(Nc2ncc(Cl)c(N[C@H]3CCCCNC3=O)n2)c(F)cc1C1CCN(C)CC1` (single isomer, unassigned) [Compound 10], half-maximal inhibition (IC50) was put at 869 nM. This IC50 lies about 11-fold higher than the previous one.

In turn, `Cc1cc(Nc2nc(Nc3cc(C)c(C4CCN(CC(N)=O)CC4)cc3C)ncc2Cl)n[nH]1` [Compound 37, 2-(4-(4-(5-chloro-4-(5-methyl-1H-pyrazol-3-ylamino)pyrimidin-2-ylamino)-2,5-dimethylphenyl)piperidin-1-yl)acetamide] came in with an IC50 of 13 nM.

Regarding `CCOC(=O)N1CCC(c2cc(F)c(Nc3ncc(Cl)c(Nc4cc(C)[nH]n4)n3)cc2C)CC1` [Compound 66, Ethyl 4-(4-(5-chloro-4-(5-methyl-1H-pyrazol-3-ylamino)pyrimidin-2-ylamino)-5-fluoro-2-methylphenyl)piperidine-1-carboxylate], the IC50 is 64 nM. Compared with the last molecule, the IC50 is about 4.9-fold higher.

Molecule `CCc1cc(Nc2nc(Nc3cc(C)c(C4CCN(CC(N)=O)CC4)cc3F)ncc2Cl)n[nH]1` [Compound 263, 2-(4-(4-(5-chloro-4-(5-ethyl-1H-pyrazol-3-ylamino)pyrimidin-2-ylamino)-5-fluoro-2-methylphenyl)piperidin-1-yl)acetamide] came in with an IC50 of 33 nM.

In turn, `Cc1cc(Nc2nc(Nc3cc(C)c(C4CC[N+]([O-])(C5CCOCC5)CC4)cc3F)ncc2Cl)n[nH]1` (stereo not shown) [Compound 294, 4-(4-(5-chloro-4-(5-methyl-1H-pyrazol-3-ylamino)pyrimidin-2-ylamino)-5-fluoro-2-methylphenyl)-1-(tetrahydro-2H-pyran-4-yl)piperidine 1-oxide] had an IC50 of 64 nM.

The molecule `Cc1cc(Nc2nc(Nc3cc(C)c(C4CCN(Cc5nc(C(C)C)no5)CC4)cc3F)ncc2Cl)n[nH]1` [Compound 259, 5-Chloro-N^2-(2-fluoro-4-(1-((3-isopropyl-1,2,4-oxadiazol-5-yl)methyl)piperidin-4-yl)-5-methylphenyl)-N-(5-methyl-1H-pyrazol-3-yl)pyrimidine-2,4-diamine] gave an IC50 of 64 nM. This lies in the double-digit nanomolar range.

On to `Cc1cc(Nc2nc(Nc3cc(C)c(C4CCN(C(=O)c5nc(C)oc5C(F)(F)F)CC4)cc3F)ncc2Cl)n[nH]1` [Compound 141, (4-(4-(5-chloro-4-(5-methyl-1H-pyrazol-3-ylamino)pyrimidin-2-ylamino)-5-fluoro-2-methylphenyl)piperidin-1-yl)(2-methyl-5-(trifluoromethyl)oxazol-4-yl)methanone], for which inhibition was half-maximal at 69 nM (IC50). The IC50 values of the last two molecules are within 1.5-fold of each other.

Molecule `Cc1cc(Nc2nc(Nc3cc(C)c(C4CCCN(C(=O)C5(N)CC5)C4)cc3C)ncc2Cl)n[nH]1` (stereo not shown) [Compound 187, (1-aminocyclopropyl)(3-(4-(5-chloro-4-(5-methyl-1H-pyrazol-3-ylamino)pyrimidin-2-ylamino)-2,5-dimethylphenyl)piperidin-1-yl)methanone] showed an IC50 of 95 nM.

Turning to `Cc1cc(Nc2nc(Nc3cc(C)c(C4CCNCC4)cc3C)ncc2C)n[nH]1` [Compound 178, N2-(2,5-dimethyl-4-(piperidin-4-yl)phenyl)-5-methyl-N4-(5-methyl-1H-pyrazol-3-yl)pyrimidine-2,4-diamine], half-maximal inhibition (IC50) was put at 3230 nM.

Take `Cc1cc(Nc2nc(Nc3cc(C)c(C4CCN(C(=O)[C@@H]5CCCN5)CC4)cc3F)ncc2Cl)n[nH]1` [Compound 116, (S)-(4-(4-(5-chloro-4-(5-methyl-1H-pyrazol-3-ylamino)pyrimidin-2-ylamino)-5-fluoro-2-methylphenyl)piperidin-1-yl)(pyrrolidin-2-yl)methanone]: 137 nM corresponded to half-maximal inhibition (IC50).

Regarding `Cc1cc(Nc2nc(Nc3cc(C)c(C4CCN(Cc5ccnnc5)CC4)cc3F)ncc2Cl)n[nH]1` [Compound 316, 5-chloro-N2-(2-fluoro-5-methyl-4-(1-(pyridazin-4-ylmethyl)piperidin-4-yl)phenyl)-N4-(5-methyl-1H-pyrazol-3-yl)pyrimidine-2,4-diamine], the IC50 amounted to 27 nM.

Molecule `Cc1cc(Nc2nc(Nc3cc(C)c(C4CCN(C(=O)[C@@H]5CCCCN5C(C)C)CC4)cc3F)ncc2Cl)n[nH]1` [Compound 125, (S)-(4-(4-(5-chloro-4-(5-methyl-1H-pyrazol-3-ylamino)pyrimidin-2-ylamino)-5-fluoro-2-methylphenyl)piperidin-1-yl)(1-isopropylpiperidin-2-yl)methanone] showed an IC50 of 12 nM.

Source of the values: patent US8859574B2 (IRM LLC, priority 2008, dated 2014).
